# Measurements: publication PMC6496074, “The Evolution of Azole Resistance in Candida albicans Sterol 14α-Demethylase (CYP51) through Incremental Amino Acid Substitutions” (Antimicrobial Agents and Chemotherapy, 2019)
# Values joined by “and” are separate entries in the source; they are usually repeats but may differ in a detail not shown here. Equal entries are not always repeated.
# Tests used:
# Test in all cases: CYP51 reconstitution assay
# Format in all cases: biochemical
# [1] = biological target: T1, CaCYP51 Y132F+F145L (Candida albicans, UniProt P10613, F145L/Y132F)
# T1 construct: made in house; host or cells: E. coli DH5α (pCWori+)
# Experimental: (§1) Azole antifungal agents were added in 2.5 μl dimethyl sulfoxide, followed by 10 min of incubation at 37°C prior to assay initiation with 4 mM β-NADPH-Na4. The samples were then shaken for 15 min at 37°C. Sterol metabolites were recovered by extraction with ethyl acetate, followed by derivatization with 0.1 ml N,O-bis(trimethylsilyl)trifluoroacetamide (BSTFA)–trimethylchlorosilane (TMCS) (99:1) and 0.3 ml anhydrous pyridine (2 h at 80°C), prior to analysis by gas chromatography-mass spectrometry (GC-MS) ([52]). IC50 determinations were performed in duplicate.
# [2] = biological target: T2, CaCYP51 D278N (Candida albicans, UniProt P10613, D278N)
# T2 construct: made in house; host or cells: E. coli DH5α (pCWori+)
# Experimental: as §1
# [3] = biological target: T3, CaCYP51 D278N+G464S (Candida albicans, UniProt P10613, D278N/G464S)
# T3 construct: made in house; host or cells: E. coli DH5α (pCWori+)
# Experimental: as §1
# [4] = biological target: T4, CaCYP51 F126V (Candida albicans, UniProt P10613, F126V)
# T4 construct: made in house; host or cells: E. coli DH5α (pCWori+)
# Experimental: as §1
# [5] = biological target: T5, CaCYP51 F145L (Candida albicans, UniProt P10613, F145L)
# T5 construct: made in house; host or cells: E. coli DH5α (pCWori+)
# Experimental: as §1
# [6] = biological target: T6, CaCYP51 F449Y (Candida albicans, UniProt P10613, F449Y)
# T6 construct: made in house; host or cells: E. coli DH5α (pCWori+)
# Experimental: as §1
# [7] = biological target: T7, CaCYP51 G307S (Candida albicans, UniProt P10613, G307S)
# T7 construct: made in house; host or cells: E. coli DH5α (pCWori+)
# Experimental: as §1
# [8] = biological target: T8, CaCYP51 G307S+G450E (Candida albicans, UniProt P10613, G307S/G450E)
# T8 construct: made in house; host or cells: E. coli DH5α (pCWori+)
# Experimental: as §1
# [9] = biological target: T9, CaCYP51 G448E (Candida albicans, UniProt P10613, G448E)
# T9 construct: made in house; host or cells: E. coli DH5α (pCWori+)
# Experimental: as §1
# [10] = biological target: T10, CaCYP51 G450E (Candida albicans, UniProt P10613, G450E)
# T10 construct: made in house; host or cells: E. coli DH5α (pCWori+)
# Experimental: as §1
# [11] = biological target: T11, CaCYP51 G464S (Candida albicans, UniProt P10613, G464S)
# T11 construct: made in house; host or cells: E. coli DH5α (pCWori+)
# Experimental: as §1
# [12] = biological target: T12, CaCYP51 I471T (Candida albicans, UniProt P10613, I471T)
# T12 construct: made in house; host or cells: E. coli DH5α (pCWori+)
# Experimental: as §1
# [13] = biological target: T13, CaCYP51 K143R (Candida albicans, UniProt P10613, K143R)
# T13 construct: made in house; host or cells: E. coli DH5α (pCWori+)
# Experimental: as §1
# [14] = biological target: T14, CaCYP51 P230L (Candida albicans, UniProt P10613, P230L)
# T14 construct: made in house; host or cells: E. coli DH5α (pCWori+)
# Experimental: as §1
# [15] = biological target: T15, CaCYP51 Q474K (Candida albicans, UniProt P10613, Q474K)
# T15 construct: made in house; host or cells: E. coli DH5α (pCWori+)
# Experimental: as §1
# [16] = biological target: T16, CaCYP51 R467K (Candida albicans, UniProt P10613, R467K)
# T16 construct: made in house; host or cells: E. coli DH5α (pCWori+)
# Experimental: as §1
# [17] = biological target: T17, CaCYP51 S279F (Candida albicans, UniProt P10613, S279F)
# T17 construct: made in house; host or cells: E. coli DH5α (pCWori+)
# Experimental: as §1
# [18] = biological target: T18, CaCYP51 S405F (Candida albicans, UniProt P10613, S405F)
# T18 construct: made in house; host or cells: E. coli DH5α (pCWori+)
# Experimental: as §1
# [19] = biological target: T19, CaCYP51 V437I (Candida albicans, UniProt P10613, V437I)
# T19 construct: made in house; host or cells: E. coli DH5α (pCWori+)
# Experimental: as §1
# [20] = biological target: T20, CaCYP51 V456I (Candida albicans, UniProt P10613, V456I)
# T20 construct: made in house; host or cells: E. coli DH5α (pCWori+)
# Experimental: as §1
# [21] = biological target: T21, CaCYP51 V488I (Candida albicans, UniProt P10613, V488I)
# T21 construct: made in house; host or cells: E. coli DH5α (pCWori+)
# Experimental: as §1
# [22] = biological target: T22, CaCYP51 Wild type (Candida albicans, UniProt P10613)
# T22 construct: made in house; host or cells: E. coli DH5α (pCWori+)
# Experimental: as §1
# [23] = biological target: T23, CaCYP51 Y118A (Candida albicans, UniProt P10613, Y118A); settings: mean ± SD, duplicate
# T23 construct: made in house; host or cells: E. coli DH5α (pCWori+)
# Experimental: as §1
# [24] = biological target: T24, CaCYP51 Y132F (Candida albicans, UniProt P10613, Y132F)
# T24 construct: made in house; host or cells: E. coli DH5α (pCWori+)
# Experimental: as §1
# [25] = biological target: T25, CaCYP51 Y132H (Candida albicans, UniProt P10613, Y132H)
# T25 construct: made in house; host or cells: E. coli DH5α (pCWori+)
# Experimental: as §1
# [26] = biological target: T26, CaCYP51 Y132H+K143R (Candida albicans, UniProt P10613, K143R/Y132H)
# T26 construct: made in house; host or cells: E. coli DH5α (pCWori+)
# Experimental: as §1
# [27] = biological target: T27, CaCYP51 Y257H (Candida albicans, UniProt P10613, Y257H)
# T27 construct: made in house; host or cells: E. coli DH5α (pCWori+)
# Experimental: as §1
# [28] = biological target: T28, CaCYP51 Y447H (Candida albicans, UniProt P10613, Y447H)
# T28 construct: made in house; host or cells: E. coli DH5α (pCWori+)
# Experimental: as §1
# [29] = 0.25 h, read-out: Residual CYP51 activity (%) ± SD
# [30] = 0.25 h, 4 μM triazole, % of activity without triazole, read-out: Residual CYP51 activity (%) ± SD
# T26 sequence (P10613 whole entry, looked up, stated change not applied): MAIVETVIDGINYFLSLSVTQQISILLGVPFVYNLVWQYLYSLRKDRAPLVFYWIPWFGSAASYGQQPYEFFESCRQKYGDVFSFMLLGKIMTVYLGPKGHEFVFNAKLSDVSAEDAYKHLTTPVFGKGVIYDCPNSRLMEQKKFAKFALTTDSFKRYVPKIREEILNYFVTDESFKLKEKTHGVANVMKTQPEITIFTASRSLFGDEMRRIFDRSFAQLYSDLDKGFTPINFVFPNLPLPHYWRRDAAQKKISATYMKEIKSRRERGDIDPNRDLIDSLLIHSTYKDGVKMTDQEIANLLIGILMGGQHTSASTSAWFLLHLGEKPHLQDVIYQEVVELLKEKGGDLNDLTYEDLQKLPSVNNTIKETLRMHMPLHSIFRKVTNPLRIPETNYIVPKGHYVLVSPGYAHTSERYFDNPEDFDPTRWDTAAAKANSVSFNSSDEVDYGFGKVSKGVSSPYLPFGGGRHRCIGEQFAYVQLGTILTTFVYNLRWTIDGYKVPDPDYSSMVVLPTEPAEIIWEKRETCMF
# T3 sequence (P10613 whole entry, looked up, stated change not applied): as above
# T8 sequence (P10613 whole entry, looked up, stated change not applied): as above
# T18 sequence (P10613 whole entry, looked up, stated change not applied): as above
# T27 sequence (P10613 whole entry, looked up, stated change not applied): as above
# T19 sequence (P10613 whole entry, looked up, stated change not applied): as above
# T22 sequence (P10613 whole entry, looked up, natural form): as the sequence (P10613 whole entry, looked up, stated change not applied) above
# T28 sequence (P10613 whole entry, looked up, stated change not applied): as above
# T7 sequence (P10613 whole entry, looked up, stated change not applied): as above
smiles,measurement,setting,value
"OC(Cn1cncn1)(Cn1cncn1)c1ccc(F)cc1F [Fluconazole, fluconazole]",IC50,[1],3890 ± 77 nM
same,remaining activity at 4 µM,[1]; [29],49.1 ± 1.76%
same,remaining activity at 4 µM,[2]; [30],7.59 ± 0.58%
same,IC50,"[2]; mean ± SD, duplicate",838 ± 27 nM
same,fold increase in IC50 over wild-type enzyme,[3],3 fold and 3.2 fold
same,remaining activity at 4 µM,[3]; [30],18.26 ± 0.08%
same,IC50,"[3]; mean ± SD, duplicate",1240 ± 64 nM
same,remaining activity at 4 µM,[4]; [30],0.09 ± 0.06%
same,IC50,"[4]; mean ± SD, duplicate",278 ± 27 nM
same,remaining activity at 4 µM,[5]; [30],6.71 ± 0.15%
same,IC50,"[5]; mean ± SD, duplicate",450 ± 83 nM
same,remaining activity at 4 µM,[6]; [30],0.76 ± 0.08%
same,IC50,"[6]; mean ± SD, duplicate",245 ± 28 nM
same,remaining activity at 4 µM,[7]; [30],0.95 ± 0.17%
same,IC50,"[7]; mean ± SD, duplicate",526 ± 211 nM
same,fold increase in IC50 over wild-type enzyme,[8],13 fold
same,remaining activity at 4 µM,[8]; [30],56.8 ± 2.3%
same,IC50,"[8]; mean ± SD, duplicate",4980 ± 54 nM
same,remaining activity at 4 µM,[9]; [30],10.5 ± 0.2%
same,IC50,"[9]; mean ± SD, duplicate",796 ± 87 nM
same,remaining activity at 4 µM,[10]; [30],18.9 ± 0.94%
same,IC50,"[10]; mean ± SD, duplicate",1080 ± 247 nM
same,remaining activity at 4 µM,[11]; [30],3.05 ± 0.17%
same,IC50,"[11]; mean ± SD, duplicate",455 ± 47 nM
same,remaining activity at 4 µM,[12]; [30],4.35 ± 0.33%
same,IC50,"[12]; mean ± SD, duplicate",600 ± 17 nM
same,remaining activity at 4 µM,[13]; [30],28.1 ± 2.04%
same,IC50,"[13]; mean ± SD, duplicate",1100 ± 313 nM
same,remaining activity at 4 µM,[14]; [30],0.05 ± 0.03%
same,IC50,"[14]; mean ± SD, duplicate",334 ± 86 nM
same,remaining activity at 4 µM,[15]; [30],0.71 ± 0.08%
same,IC50,"[15]; mean ± SD, duplicate",358 ± 8 nM
same,remaining activity at 4 µM,[16]; [30],3.34 ± 0.61%
same,IC50,"[16]; mean ± SD, duplicate",476 ± 80 nM
same,remaining activity at 4 µM,[17]; [30],18 ± 1.67%
same,IC50,"[17]; mean ± SD, duplicate",1050 ± 325 nM
same,remaining activity at 4 µM,[18]; [30],11.6 ± 1.41%
same,IC50,"[18]; mean ± SD, duplicate",820 ± 42 nM
same,remaining activity at 4 µM,[19]; [30],0.22 ± 0.06%
same,IC50,"[19]; mean ± SD, duplicate",281 ± 4 nM
same,remaining activity at 4 µM,[20]; [30],3.68 ± 0.95%
same,IC50,"[20]; mean ± SD, duplicate",483 ± 22 nM
same,remaining activity at 4 µM,[21]; [30],1.06 ± 0.04%
same,IC50,"[21]; mean ± SD, duplicate",520 ± 57 nM
same,remaining activity at 4 µM,[22]; [29],0.11 ± 0.09%
same,IC50,[22]; IC50,384 ± 19 nM
same,IC50,[23],194 ± 10 nM
same,remaining activity at 4 µM,[24]; [30],7.05 ± 0.27%
same,IC50,"[24]; mean ± SD, duplicate",606 ± 66 nM
same,remaining activity at 4 µM,[25]; [30],0.86 ± 0.07%
same,IC50,"[25]; mean ± SD, duplicate",220 ± 13 nM
same,fold increase in IC50 over wild-type enzyme,[26],22 fold and 22.1 fold
same,remaining activity at 4 µM,[26]; [30],68.8 ± 5.68%
same,IC50,"[26]; mean ± SD, duplicate",8470 ± 1270 nM
same,remaining activity at 4 µM,[27]; [30],3.96 ± 0.18%
same,IC50,"[27]; mean ± SD, duplicate",512 ± 47 nM
same,remaining activity at 4 µM,[28]; [30],4.34 ± 0.51%
same,IC50,"[28]; mean ± SD, duplicate",483 ± 18 nM
